Measured values as given in PubChem BioAssay AID2060903 (Molecular Pharmacology Branch, DTP, NCI, 2025).

Tested on: 377384-186-R-J1-PDC complex spheroid viability
Assay: Anticancer human tumor 377384-186-R-J1-PDC patient-derived pancreatic carcinoma cell line growth inhibition [RAS]
Settings: for IC50: curve of first compound; for viability, T/C: stronger effect = lower value
Method in brief: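 Multi-cell-type spheroids: tumor cells plus HUVEC endothelial cells and mesenchymal stem cells. RAS-pathway inhibitors were combined with targeted agents, each dosed in half-log steps down from clinical Cmax, or from 10 microM when Cmax was unknown.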

[1] = second compound 0.00316 µM, first compound 0.0316 µM
[2] = second compound 0.00316 µM, first compound 0.1 µM
[3] = second compound 0.01 µM, first compound 0.0316 µM
[4] = second compound 0.01 µM, first compound 0.1 µM
[5] = second compound 0.0316 µM, first compound 0.0316 µM
[6] = second compound 0.0316 µM, first compound 0.1 µM
[7] = second compound 0.1 µM, first compound 0.0316 µM
[8] = second compound 0.1 µM, first compound 0.1 µM
[9] = second compound 0.316 µM, first compound 0.0316 µM
[10] = second compound 0.316 µM, first compound 0.1 µM
[11] = second compound 1 µM, first compound 0.0316 µM
[12] = second compound 1 µM, first compound 0.1 µM
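Also: spheroids exposed to compounds for seven days before readout.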

For CC(C)NCC(C(=O)N1CCN(c2ncnc3c2C(C)CC3O)CC1)c1ccc(Cl)cc1 (centres undefined) + C=CC(=O)N1CCN(c2nc(OCC3CCCN3C)nc3c(F)c(-c4nc(N)cc(C)c4C(F)(F)F)c(Cl)cc23)C(C)C1, the IC50 (second compound 0.00316 µM) was 2320 nM, the IC50 (second compound 0.01 µM) was 2670 nM and the IC50 (second compound 0.0316 µM) was 2780 nM. The IC50 (second compound 0.1 µM) was 2450 nM, the IC50 (second compound 0.316 µM) was 1760 nM and the IC50 (second compound 1 µM) was 2060 nM. The viability, T/C [1] was 80.9%, the viability, T/C [2] was 95% and the viability, T/C (second compound 0.00316 µM, first compound 0.316 µM) was 87.4%. The viability, T/C (second compound 0.00316 µM, first compound 1 µM) was 61.7%, the viability, T/C (second compound 0.00316 µM, first compound 3.16 µM) was 48.6% and the viability, T/C (second compound 0.00316 µM, first compound 10 µM) was 32.6%. It also gave a viability, T/C [3] of 96.8%, a viability, T/C [4] of 78.1% and a viability, T/C (second compound 0.01 µM, first compound 0.316 µM) of 73.7%. It also gave a viability, T/C (second compound 0.01 µM, first compound 1 µM) of 63.3%, a viability, T/C (second compound 0.01 µM, first compound 3.16 µM) of 46.4% and a viability, T/C (second compound 0.01 µM, first compound 10 µM) of 35.9%. For the same molecule, the viability, T/C [5] was 91.3%, the viability, T/C [6] was 96.7% and the viability, T/C (second compound 0.0316 µM, first compound 0.316 µM) was 70%. For the same molecule, the viability, T/C (second compound 0.0316 µM, first compound 1 µM) was 67.1%, the viability, T/C (second compound 0.0316 µM, first compound 3.16 µM) was 47.4% and the viability, T/C (second compound 0.0316 µM, first compound 10 µM) was 38.1%. The viability, T/C [7] was 99.8%, the viability, T/C [8] was 85% and the viability, T/C (second compound 0.1 µM, first compound 0.316 µM) was 86.5%. The viability, T/C (second compound 0.1 µM, first compound 1 µM) was 58.7%, the viability, T/C (second compound 0.1 µM, first compound 3.16 µM) was 48.2% and the viability, T/C (second compound 0.1 µM, first compound 10 µM) was 35.5%. It also gave a viability, T/C [9] of 89.4%, a viability, T/C [10] of 102% and a viability, T/C (second compound 0.316 µM, first compound 0.316 µM) of 80.9%. For the same molecule, the viability, T/C (second compound 0.316 µM, first compound 1 µM) was 56%, the viability, T/C (second compound 0.316 µM, first compound 3.16 µM) was 47.8% and the viability, T/C (second compound 0.316 µM, first compound 10 µM) was 35%. The viability, T/C [11] was 91.8%, the viability, T/C [12] was 97% and the viability, T/C (second compound 1 µM, first compound 0.316 µM) was 75.1%. It also gave a viability, T/C (second compound 1 µM, first compound 1 µM) of 61.7%, a viability, T/C (second compound 1 µM, first compound 3.16 µM) of 44.4% and a viability, T/C (second compound 1 µM, first compound 10 µM) of 32.8%.
Work on CC(C)n1nc(-c2ccc3oc(N)nc3c2)c2c(N)ncnc21 + C=CC(=O)N1CCN(c2nc(OCC3CCCN3C)nc3c(F)c(-c4nc(N)cc(C)c4C(F)(F)F)c(Cl)cc23)C(C)C1 yielded an IC50 (second compound 0.00316 µM) of 12.2 nM, an IC50 (second compound 0.01 µM) of 15 nM and an IC50 (second compound 0.0316 µM) of 15.7 nM. It also gave an IC50 (second compound 0.1 µM) of 11.3 nM, an IC50 (second compound 0.316 µM) of 12.7 nM and an IC50 (second compound 1 µM) of 15.2 nM. The viability, T/C (second compound 0.00316 µM, first compound 0.000316 µM) was 93.6%, the viability, T/C (second compound 0.00316 µM, first compound 0.001 µM) was 80.3% and the viability, T/C (second compound 0.00316 µM, first compound 0.00316 µM) was 76%. For the same molecule, the viability, T/C (second compound 0.00316 µM, first compound 0.01 µM) was 50.8%, the viability, T/C [1] was 35.4% and the viability, T/C [2] was 21.1%. For the same molecule, the viability, T/C (second compound 0.01 µM, first compound 0.000316 µM) was 87.2%, the viability, T/C (second compound 0.01 µM, first compound 0.001 µM) was 83.1% and the viability, T/C (second compound 0.01 µM, first compound 0.00316 µM) was 68.2%. For the same molecule, the viability, T/C (second compound 0.01 µM, first compound 0.01 µM) was 59.4%, the viability, T/C [3] was 36.6% and the viability, T/C [4] was 19.9%. It also gave a viability, T/C (second compound 0.0316 µM, first compound 0.000316 µM) of 90.5%, a viability, T/C (second compound 0.0316 µM, first compound 0.001 µM) of 76.3% and a viability, T/C (second compound 0.0316 µM, first compound 0.00316 µM) of 64.7%. For the same molecule, the viability, T/C (second compound 0.0316 µM, first compound 0.01 µM) was 61.8%, the viability, T/C [5] was 40% and the viability, T/C [6] was 17.4%. It also gave a viability, T/C (second compound 0.1 µM, first compound 0.000316 µM) of 91.5%, a viability, T/C (second compound 0.1 µM, first compound 0.001 µM) of 77.2% and a viability, T/C (second compound 0.1 µM, first compound 0.00316 µM) of 67.4%. For the same molecule, the viability, T/C (second compound 0.1 µM, first compound 0.01 µM) was 50.5%, the viability, T/C [7] was 37.9% and the viability, T/C [8] was 23.7%. For the same molecule, the viability, T/C (second compound 0.316 µM, first compound 0.000316 µM) was 81.3%, the viability, T/C (second compound 0.316 µM, first compound 0.001 µM) was 82.2% and the viability, T/C (second compound 0.316 µM, first compound 0.00316 µM) was 70%. It also gave a viability, T/C (second compound 0.316 µM, first compound 0.01 µM) of 48.5%, a viability, T/C [9] of 40% and a viability, T/C [10] of 18%. It also gave a viability, T/C (second compound 1 µM, first compound 0.000316 µM) of 89.7%, a viability, T/C (second compound 1 µM, first compound 0.001 µM) of 89.2% and a viability, T/C (second compound 1 µM, first compound 0.00316 µM) of 81.7%. It also gave a viability, T/C (second compound 1 µM, first compound 0.01 µM) of 55.4%, a viability, T/C [11] of 37.7% and a viability, T/C [12] of 20.4%.
